For orientation: EC50 means the concentration at which the effect is half-maximal. By IC50 is commonly meant the concentration that inhibits the measured activity by half. A lower IC50 goes with greater potency in that assay.

Read-outs that look alike come from different tables or passages of the source.

Consider 13 compounds from patent US20240239790A1, “7-Morpholino-1,6-Naphthyridin-5-yl Derivatives and Pharmaceutical Compositions Thereof Useful as DNA-PK Inhibitor” (adMare Therapeutics Society, priority 2021, published 2024).

Series [1] deals with pH2AX induction in HCT116 ATM-/- multicellular tumour spheroids. Briefly: Prodrug Radiation Sensitization in Multicellular Tumour Spheroids, inhibition of pH2AX induction following radiation. It counts as cell-based. The following applies: Homo sapiens, HCT-116, 20 Gy. An outline of the steps: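 Endpoint: pH2AX (ser 139) or pDNA-PK (ser 2056) in cryosections fixed 1 or 2 h after 20 Gy, comparing oxygenated outer with hypoxic inner layers. Spheroids of ~0.5 mm (HCT116, FaDu; ATM-deficient cells used) held at 20% or 5% O2, 37 °C, stirred. Prodrug range 3.5 nM–10 μM.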

For the next series, the system named is FaDu cell line. The experiment in a line: Prodrug Activation in Hypoxic Stirred Tumour Cell Suspensions. The conditions noted are these: 10 μM, 4 hours.
The target in series [2] is T1, DNA-PK phosphorylation at Serine 2056 (Homo sapiens, UniProt P78527).
T1 construct: FaDu cells were purchased from ATCC; host or cells: FaDu
Briefly: Cellular Assay for Inhibition of DNA-PK Phosphorylation at Serine 2056 in FaDu cells (sandwich ELISA, neocarzinostatin). The conditions noted are these: pSer2056 DNA-PK, Table 3. In kind it is cell-based. A digest of the protocol: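 pSer2056 and total DNA-PK were measured by sandwich ELISA in BCA-normalised FaDu lysates. Cells had 1 h compound exposure (0.3% DMSO), then 2 h with 1 μg/mL final neocarzinostatin. IC50 was fitted (variable slope) to % inhibition scaled against NCS-stimulated and DMSO-only controls.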
For orientation: In an ELISA, binding on a coated surface is turned into a signal by an enzyme label.

Setting [3] is: 5% O2, inner layers, read-out: Prodrug 5% O2 Inner layers EC50.
The mark [4] stands for this setting: 5% O2, outer layers, read-out: Prodrug 5% O2 Outer layers EC50.
[5] abbreviates: 20% O2, outer layers, read-out: Prodrug 20% O2 Outer layers EC50.

As to `CN(C)CCOc1cnc(N[C@H]2CC[C@@H](Oc3nc(N4CCOCC4)cc4ncc(N(Cc5cnn(C)c5[N+](=O)[O-])S(C)(=O)=O)cc34)CC2)nc1` [LFA2075, N-[5-[4-[[5-[2-(dimethylamino)ethoxy]pyrimidin-2-yl]amino]cyclohexoxy]-7-morpholino-1,6-naphthyridin-3-yl]-N-[(1-methyl-5-nitro-pyrazol-4-yl)methyl]methanesulfonamide], the EC50 in series [1] (setting [3]) lay in the range of 0.01 to 0.5 µM; in series [1] (setting [4]) it was 0.5 to 1 µM; in series [1] (setting [5]), 1 to 10 µM. Moreover, the “Fraction of prodrug converted to active form, Hypoxic 0.2% O2” value (shortened to “Fraction … Hypoxic 0.2% O2”) with FaDu cell line was “B (B is 0.05 to 0.15)”. For the same compound, the “Fraction of prodrug converted to active form, Oxic 5% O2” value (from here on “Fraction … Oxic 5% O2”) with FaDu cell line was “B (B is 0.05 to 0.15)”. The same compound displayed an IC50 in series [2] of 1 to 10 µM.

Take `CC(c1cnc([N+](=O)[O-])n1C)N(c1cnc2cc(N3CCOCC3)nc(OC3CCC(Nc4ncc(N5CCN(CC(F)F)CC5)cn4)CC3)c2c1)S(C)(=O)=O` (stereo not drawn) [LFA2047, N-[5-[4-[[5-[4-(2,2-difluoroethyl)piperazin-1-yl]pyrimidin-2-yl]amino]cyclohexoxy]-7-morpholino-1,6-naphthyridin-3-yl]-N-[1-(3-methyl-2-nitro-imidazol-4-yl)ethyl]methanesulfonamide]: the EC50 in series [1] (setting [3]) was in the range of 0.01 to 0.5 µM; in series [1] (setting [4]) it was 1 to 10 µM; in series [1] (setting [5]) it was 1 to 10 µM. In the series with FaDu cell line, the “Fraction … Hypoxic 0.2% O2” value is “B (B is 0.05 to 0.15)”. Besides, in the series with FaDu cell line, the “Fraction … Oxic 5% O2” value is reported as “D (D is 0 to 0.02)”. The compound also came in with an IC50 in series [2] of 10 to 30 µM.

On to `CC(Oc1cnc2cc(N3CCOCC3)nc(O[C@H]3CC[C@@H](N(C)c4ncccn4)CC3)c2c1)c1cnc([N+](=O)[O-])n1C` (stereo partly drawn) [LFA2063, N-methyl-N-[4-[[3-[1-(3-methyl-2-nitro-imidazol-4-yl)ethoxy]-7-morpholino-1,6-naphthyridin-5-yl]oxy]cyclohexyl]pyrimidin-2-amine], for which the figures for the EC50 in series [1] (setting [3]), in series [1] (setting [4]) and in series [1] (setting [5]) were 0.01 to 0.5 µM, 1 to 10 µM and 1 to 10 µM, respectively. In addition, the “Fraction … Hypoxic 0.2% O2” value in the series on FaDu cell line is “A (A is 0.15 to 1)”. For the same compound, in the series on FaDu cell line, the “Fraction … Oxic 5% O2” value was “B (B is 0.05 to 0.15)”. The IC50 in series [2] lay within 10 to 30 µM.

As for `CC(c1cnn(C)c1[N+](=O)[O-])N(c1cnc2cc(N3CCOCC3)nc(O[C@H]3CC[C@@H](Nc4ncc(C#N)cn4)CC3)c2c1)S(C)(=O)=O` (stereo partly drawn) [LFA2052, N-[5-[4-[(5-cyanopyrimidin-2-yl)amino]cyclohexoxy]-7-morpholino-1,6-naphthyridin-3-yl]-N-[1-(1-methyl-5-nitro-pyrazol-4-yl)ethyl]methanesulfonamide], the EC50 was in the range of 0.01 to 0.5 µM in series [1] (setting [3]), 0.5 to 1 µM in series [1] (setting [4]) and 1 to 10 µM in series [1] (setting [5]). Also, the “Fraction … Hypoxic 0.2% O2” value with FaDu cell line is on record as “B (B is 0.05 to 0.15)”. The “Fraction … Oxic 5% O2” value with FaDu cell line was “C (C is 0.02 to 0.05)”. For the same compound, the IC50 in series [2] lay within 1 to 10 µM.

For `Cn1c(CNS(=O)(=O)c2cnc3cc(N4CCOCC4)nc(O[C@H]4CC[C@@H](Nc5ncc(C(F)(F)F)cn5)CC4)c3c2)cnc1[N+](=O)[O-]` [LFA2091, N-[(3-methyl-2-nitro-imidazol-4-yl)methyl]-7-morpholino-5-[4-[[5-(trifluoromethyl)pyrimidin-2-yl]amino]cyclohexoxy]-1,6-naphthyridine-3-sulfonamide], the EC50 in series [1] (setting [3]), in series [1] (setting [4]) and in series [1] (setting [5]) was 10 to 100 µM throughout. Besides, the “Fraction … Hypoxic 0.2% O2” value in the series with FaDu cell line was “D (D is 0 to 0.02)”. For the same compound, the “Fraction … Oxic 5% O2” value in the series with FaDu cell line is “D (D is 0 to 0.02)”. In series [2], this compound yielded an IC50 of 10 to 30 µM.

Take `CC(c1cnc([N+](=O)[O-])n1C)N(c1cnc2cc(N3CCOCC3)nc(OC3CCC(Nc4ncc(N5CCN(CC(F)(F)F)CC5)cn4)CC3)c2c1)S(C)(=O)=O` (stereo not drawn) [LFA2046, N-[1-(3-methyl-2-nitro-imidazol-4-yl)ethyl]-N-[7-morpholino-5-[4-[[5-[4-(2,2,2-trifluoroethyl)piperazin-1-yl]pyrimidin-2-yl]amino]cyclohexoxy]-1,6-naphthyridin-3-yl]methanesulfonamide]: the EC50 lay within 0.5 to 1 µM in series [1] (setting [3]), 1 to 10 µM in series [1] (setting [4]) and 1 to 10 µM in series [1] (setting [5]). The “Fraction … Hypoxic 0.2% O2” value in the series with FaDu cell line was “D (D is 0 to 0.02)”. Besides, the “Fraction … Oxic 5% O2” value in the series with FaDu cell line is reported as “D (D is 0 to 0.02)”. In addition, the IC50 in series [2] fell in the range of 10 to 30 µM.

Turning to `Cc1ccc(N[C@H]2CC[C@@H](Oc3nc(N4CCOCC4)cc4ncc(OC(C)c5cnc([N+](=O)[O-])n5C)cc34)CC2)nc1` (stereo partly drawn) [LFA2105, 5-methyl-N-[4-[[3-[1-(3-methyl-2-nitro-imidazol-4-yl)ethoxy]-7-morpholino-1,6-naphthyridin-5-yl]oxy]cyclohexyl]pyridin-2-amine], the EC50 in series [1] (setting [3]) is 1 to 10 µM; in series [1] (setting [4]) it was 1 to 10 µM; in series [1] (setting [5]), 10 to 100 µM. For the same compound, the “Fraction … Hypoxic 0.2% O2” value in the series with FaDu cell line is recorded as “A (A is 0.15 to 1)”. The “Fraction … Oxic 5% O2” value in the series on FaDu cell line was “D (D is 0 to 0.02)”. Also, the IC50 in series [2] lay in the range of 10 to 30 µM.

Turning to `CC(Oc1cnc2cc(N3CCOCC3)nc(O[C@H]3CC[C@@H](Nc4ccccn4)CC3)c2c1)c1cnc([N+](=O)[O-])n1C` (stereo partly drawn) [LFA2084, N-[4-[[3-[1-(3-methyl-2-nitro-imidazol-4-yl)ethoxy]-7-morpholino-1,6-naphthyridin-5-yl]oxy]cyclohexyl]pyridin-2-amine], the EC50 in series [1] (setting [3]) fell in the range of 0.01 to 0.5 µM; in series [1] (setting [4]), 1 to 10 µM; in series [1] (setting [5]) it was 10 to 100 µM. Moreover, in the series with FaDu cell line, the “Fraction … Hypoxic 0.2% O2” value is recorded as “A (A is 0.15 to 1)”. For the same compound, the “Fraction … Oxic 5% O2” value with FaDu cell line was “C (C is 0.02 to 0.05)”. The compound also had an IC50 in series [2] of 10 to 30 µM.

With `CC(c1cnc([N+](=O)[O-])n1C)N(c1cnc2cc(N3CCOCC3)nc(O[C@H]3CC[C@@H](Nc4cncc(C(F)(F)F)n4)CC3)c2c1)S(C)(=O)=O` (stereo partly drawn) [LFA2099, N-[1-(3-methyl-2-nitro-imidazol-4-yl)ethyl]-N-[7-morpholino-5-[4-[[6-(trifluoromethyl)pyrazin-2-yl]amino]cyclohexoxy]-1,6-naphthyridin-3-yl]methanesulfonamide], the EC50 in series [1] (setting [3]), in series [1] (setting [4]) and in series [1] (setting [5]) was 10 to 100 µM throughout. In the series with FaDu cell line, the “Fraction … Hypoxic 0.2% O2” value is reported as “B (B is 0.05 to 0.15)”. Also, the “Fraction … Oxic 5% O2” value in the series with FaDu cell line is “D (D is 0 to 0.02)”. In series [2], this compound displayed an IC50 of 1 to 10 µM.

For the compound `CC(Oc1cnc2cc(N3CCOCC3)nc(OC3CCC(Nc4ncc(OCCN5CCN(C)CC5)cn4)CC3)c2c1)c1cnn(C)c1[N+](=O)[O-]` (stereo not drawn) [LFA2089, N-[4-[[3-[1-(1-methyl-5-nitro-pyrazol-4-yl)ethoxy]-7-morpholino-1,6-naphthyridin-5-yl]oxy]cyclohexyl]-5-[2-(4-methylpiperazin-1-yl)ethoxy]pyrimidin-2-amine], the EC50 in series [1] (setting [3]), in series [1] (setting [4]) and in series [1] (setting [5]) was 1 to 10 µM in each case. Further, the “Fraction … Hypoxic 0.2% O2” value in the series with FaDu cell line is “B (B is 0.05 to 0.15)”. For the same compound, in the series on FaDu cell line, the “Fraction … Oxic 5% O2” value is on record as “D (D is 0 to 0.02)”. Moreover, the IC50 in series [2] lay within 1 to 10 µM.

Regarding `CC(c1cnc([N+](=O)[O-])n1C1CC1)N(c1cnc2cc(N3CCOCC3)nc(O[C@H]3CC[C@@H](Nc4ncccn4)CC3)c2c1)S(C)(=O)=O` (stereo partly drawn) [LFA2055, N-[1-(3-cyclopropyl-2-nitro-imidazol-4-yl)ethyl]-N-[7-morpholino-5-[4-(pyrimidin-2-ylamino)cyclohexoxy]-1,6-naphthyridin-3-yl]methanesulfonamide], the EC50 in series [1] (setting [3]) is 0.01 to 0.5 µM; in series [1] (setting [4]) it was 0.01 to 0.5 µM; in series [1] (setting [5]), 1 to 10 µM. Besides, the “Fraction … Hypoxic 0.2% O2” value in the series on FaDu cell line was “A (A is 0.15 to 1)”. Also, in the series on FaDu cell line, the “Fraction … Oxic 5% O2” value is recorded as “D (D is 0 to 0.02)”. In series [2], this compound registered a concentration for half-maximal inhibition (IC50) of 1 to 10 µM.

For the compound `CN(C)CCOc1cnc(N[C@H]2CC[C@@H](Oc3nc(N4CCOCC4)cc4ncc(OCc5cnc([N+](=O)[O-])n5C)cc34)CC2)nc1` [LFA2088, 5-[2-(dimethylamino)ethoxy]-N-[4-[[3-[(3-methyl-2-nitro-imidazol-4-yl)methoxy]-7-morpholino-1,6-naphthyridin-5-yl]oxy]cyclohexyl]pyrimidin-2-amine], the EC50 in series [1] (setting [3]), in series [1] (setting [4]) and in series [1] (setting [5]) was 1 to 10 µM each time. The “Fraction … Hypoxic 0.2% O2” value in the series with FaDu cell line is listed as “B (B is 0.05 to 0.15)”. Moreover, the “Fraction … Oxic 5% O2” value in the series on FaDu cell line is on record as “D (D is 0 to 0.02)”. The same compound displayed an IC50 in series [2] of 1 to 10 µM.

For the compound `CC(c1cnc([N+](=O)[O-])n1C)N(c1cnc2cc(N3CCOCC3)nc(O[C@H]3CC[C@@H](Nc4ncc(OCCN5CCOCC5)cn4)CC3)c2c1)S(C)(=O)=O` (stereo partly drawn) [LFA2054, N-[1-(3-methyl-2-nitro-imidazol-4-yl)ethyl]-N-[7-morpholino-5-[4-[[5-(2-morpholinoethoxy)pyrimidin-2-yl]amino]cyclohexoxy]-1,6-naphthyridin-3-yl]methanesulfonamide], the EC50 in series [1] (setting [3]) lay in the range of 0.01 to 0.5 µM; in series [1] (setting [4]) it was 0.5 to 1 µM; in series [1] (setting [5]), 10 to 100 µM. The “Fraction … Hypoxic 0.2% O2” value in the series on FaDu cell line is “B (B is 0.05 to 0.15)”. Also, the “Fraction … Oxic 5% O2” value with FaDu cell line is on record as “D (D is 0 to 0.02)”. Besides, in series [2], the IC50 was in the range of 10 to 30 µM.
